Test results from ChEMBL document CHEMBL3885861, “Open TG-GATES”.

Species on record: Rattus norvegicus
Test: Open TG-GATES - Regimen: Daily Repeat
Format: toxicity, organism-based, Sprague-Dawley
Parameters: regimen Daily Repeat, gender Male, age 6 weeks
Settings: in vivo, po, route gavage; for APTT / Bas / Eos / Fbg / Hb / Ht / Lym / MCH / MCV / Mono / Neu / PT / Plat / RBC / Ret / WBC: tissue Blood; for KIDNEY_L / KIDNEY_R / KIDNEY_TOTAL: tissue Kidney; for LIVER: tissue Liver; for ALP / ALT / AST / BUN / CRE / Ca / Cl / DBIL / GLC / IP / K / LDH / Na / PL / RALB / TBIL / TP / gamma-GTP: tissue Plasma
[1] = 0 mg/kg, 72 h, dose level Control, time 3 day
[2] = 0 mg/kg, […], dose level Control, time 7 day
[3] = 0 mg/kg, […], dose level Control, time 14 day
[4] = 0 mg/kg, […], dose level Control, time 28 day
[5] = 30 mg/kg, 72 h, dose level Low, time 3 day
[6] = 30 mg/kg, […], dose level Low, time 7 day
[7] = 30 mg/kg, […], dose level Low, time 14 day
[8] = 30 mg/kg, […], dose level Low, time 28 day
[9] = 100 mg/kg, 72 h, dose level Middle, time 3 day

NC(=O)N1c2ccccc2C=Cc2ccccc21 [CARBAMAZEPINE]
TERMINAL_BW [1]: 235.3 g
APTT [1]: 19.1 s
Bas [1]: 0%
Eos [1]: 1%
Fbg [1]: 213.8 mg/dL
Hb [1]: 13.6 g/dL
Ht [1]: 40.2%
Lym [1]: 79%
MCH [1]: 21 pg
MCV [1]: 61.9 fL
Mono [1]: 3.6%
Neu [1]: 15.6%
PT [1]: 12.3 s
Plat [1]: 123.2 x10_4/uL
RBC [1]: 648.8 x10_4/ul
Ret [1]: 4.9%
WBC [1]: 95.6 x10_2/uL
KIDNEY_L [1]: 1.1 g
KIDNEY_R [1]: 1.1 g
KIDNEY_TOTAL [1]: 2.2 g
LIVER [1]: 11.5 g
ALP [1]: 1022.4 IU/L
ALT [1]: 41.4 IU/L
AST [1]: 77 IU/L
BUN [1]: 15.6 mg/dL
CRE [1]: 0.4 mg/dL
Ca [1]: 10.7 mg/dL
Cl [1]: 102.4 meq/L
DBIL [1]: 0.08 mg/dL
GLC [1]: 213.8 mg/dL
IP [1]: 7.8 mg/dL
K [1]: 3.8 meq/L
LDH [1]: 178.8 IU/L
Na [1]: 140.4 meq/L
PL [1]: 144 mg/dL
RALB [1]: 3.3 g/dL
TBIL [1]: 0.1 mg/dL
TP [1]: 5.6 g/dL
gamma-GTP [1]: 0.8 IU/L
TERMINAL_BW [2]: 265.1 g
TERMINAL_BW [3]: 321.1 g
TERMINAL_BW [4]: 388.8 g
APTT [2]: 21.2 s
Bas [2]: 0%
Eos [2]: 1%
Fbg [2]: 223 mg/dL
Hb [2]: 14 g/dL
Ht [2]: 40.8%
Lym [2]: 81%
MCH [2]: 20.8 pg
MCV [2]: 60.5 fL
Mono [2]: 2.4%
Neu [2]: 14.4%
PT [2]: 11.9 s
Plat [2]: 122.6 x10_4/uL
RBC [2]: 674.4 x10_4/ul
Ret [2]: 3.8%
WBC [2]: 90.9 x10_2/uL
APTT [3]: 22 s
Bas [3]: 0%
Eos [3]: 1%
Fbg [3]: 219 mg/dL
Hb [3]: 14.5 g/dL
Ht [3]: 41.7%
Lym [3]: 82.2%
MCH [3]: 20.7 pg
MCV [3]: 59.6 fL
Mono [3]: 2.6%
Neu [3]: 13.2%
PT [3]: 12.2 s
Plat [3]: 129 x10_4/uL
RBC [3]: 700.4 x10_4/ul
Ret [3]: 4.2%
WBC [3]: 120.8 x10_2/uL
APTT [4]: 20.4 s
Bas [4]: 0%
Eos [4]: 1.2%
Fbg [4]: 212.8 mg/dL
Hb [4]: 15.3 g/dL
Ht [4]: 43.3%
Lym [4]: 81%
MCH [4]: 20.1 pg
MCV [4]: 56.8 fL
Mono [4]: 2.4%
Neu [4]: 14.6%
PT [4]: 12.2 s
Plat [4]: 111.8 x10_4/uL
RBC [4]: 762 x10_4/ul
Ret [4]: 2.4%
WBC [4]: 105.6 x10_2/uL
KIDNEY_L [2]: 1.1 g
KIDNEY_R [2]: 1.1 g
KIDNEY_TOTAL [2]: 2.3 g
KIDNEY_L [3]: 1.3 g
KIDNEY_R [3]: 1.2 g
KIDNEY_TOTAL [3]: 2.5 g
KIDNEY_L [4]: 1.4 g
KIDNEY_R [4]: 1.4 g
KIDNEY_TOTAL [4]: 2.8 g
LIVER [2]: 12.2 g
LIVER [3]: 13.6 g
LIVER [4]: 15.2 g
ALP [2]: 993 IU/L
ALT [2]: 37.6 IU/L
AST [2]: 74 IU/L
BUN [2]: 16.8 mg/dL
CRE [2]: 0.4 mg/dL
Ca [2]: 10.5 mg/dL
Cl [2]: 102.4 meq/L
DBIL [2]: 0.1 mg/dL
GLC [2]: 218.2 mg/dL
IP [2]: 7.5 mg/dL
K [2]: 3.8 meq/L
LDH [2]: 218.6 IU/L
Na [2]: 140.6 meq/L
PL [2]: 158.6 mg/dL
RALB [2]: 3.5 g/dL
TBIL [2]: 0.2 mg/dL
TP [2]: 5.8 g/dL
gamma-GTP [2]: 1 IU/L
ALP [3]: 817.2 IU/L
ALT [3]: 36 IU/L
AST [3]: 64 IU/L
BUN [3]: 16.7 mg/dL
CRE [3]: 0.5 mg/dL
Ca [3]: 10.7 mg/dL
Cl [3]: 102.4 meq/L
DBIL [3]: 0.1 mg/dL
GLC [3]: 207.4 mg/dL
IP [3]: 7 mg/dL
K [3]: 3.8 meq/L
LDH [3]: 204.6 IU/L
Na [3]: 141.6 meq/L
PL [3]: 151.4 mg/dL
RALB [3]: 3.5 g/dL
TBIL [3]: 0.2 mg/dL
TP [3]: 5.9 g/dL
gamma-GTP [3]: 1 IU/L
ALP [4]: 739.6 IU/L
ALT [4]: 35.4 IU/L
AST [4]: 68.2 IU/L
BUN [4]: 18 mg/dL
CRE [4]: 0.5 mg/dL
Ca [4]: 10.3 mg/dL
Cl [4]: 102 meq/L
DBIL [4]: 0.1 mg/dL
GLC [4]: 224.8 mg/dL
IP [4]: 6.7 mg/dL
K [4]: 3.4 meq/L
LDH [4]: 182.6 IU/L
Na [4]: 141 meq/L
PL [4]: 147.8 mg/dL
RALB [4]: 3.4 g/dL
TBIL [4]: 0.2 mg/dL
TP [4]: 6.2 g/dL
gamma-GTP [4]: 1.2 IU/L
TERMINAL_BW [5]: 237.7 g
APTT [5]: 19.7 s
Bas [5]: 0%
Eos [5]: 1%
Fbg [5]: 213 mg/dL
Hb [5]: 13.4 g/dL
Ht [5]: 39.4%
Lym [5]: 80.4%
MCH [5]: 21 pg
MCV [5]: 62 fL
Mono [5]: 3.4%
Neu [5]: 14%
PT [5]: 12.2 s
Plat [5]: 120.4 x10_4/uL
RBC [5]: 636 x10_4/ul
Ret [5]: 5.2%
WBC [5]: 98.2 x10_2/uL
KIDNEY_L [5]: 1 g
KIDNEY_R [5]: 1 g
KIDNEY_TOTAL [5]: 2 g
LIVER [5]: 11.7 g
ALP [5]: 1007.4 IU/L
ALT [5]: 35.6 IU/L
AST [5]: 66.6 IU/L
BUN [5]: 14.8 mg/dL
CRE [5]: 0.4 mg/dL
Ca [5]: 10.8 mg/dL
Cl [5]: 103.2 meq/L
DBIL [5]: 0.094 mg/dL
GLC [5]: 209.6 mg/dL
IP [5]: 7.6 mg/dL
K [5]: 3.5 meq/L
LDH [5]: 197.2 IU/L
Na [5]: 140 meq/L
PL [5]: 148.8 mg/dL
RALB [5]: 3.3 g/dL
TBIL [5]: 0.1 mg/dL
TP [5]: 5.6 g/dL
gamma-GTP [5]: 1.2 IU/L
TERMINAL_BW [6]: 270.1 g
TERMINAL_BW [7]: 327.6 g
TERMINAL_BW [8]: 366.9 g
APTT [6]: 21.4 s
Bas [6]: 0%
Eos [6]: 0.8%
Fbg [6]: 214.2 mg/dL
Hb [6]: 13.7 g/dL
Ht [6]: 40.2%
Lym [6]: 83.2%
MCH [6]: 20.8 pg
MCV [6]: 61.1 fL
Mono [6]: 2.4%
Neu [6]: 12.6%
PT [6]: 12 s
Plat [6]: 127.1 x10_4/uL
RBC [6]: 658.2 x10_4/ul
Ret [6]: 4.4%
WBC [6]: 103.7 x10_2/uL
APTT [7]: 20.7 s
Bas [7]: 0%
Eos [7]: 1%
Fbg [7]: 206.2 mg/dL
Hb [7]: 14.3 g/dL
Ht [7]: 41.1%
Lym [7]: 83%
MCH [7]: 20.4 pg
MCV [7]: 58.8 fL
Mono [7]: 2.4%
Neu [7]: 12.6%
PT [7]: 12.2 s
Plat [7]: 119.9 x10_4/uL
RBC [7]: 700.8 x10_4/ul
Ret [7]: 4%
WBC [7]: 100 x10_2/uL
APTT [8]: 21 s
Bas [8]: 0%
Eos [8]: 0.8%
Fbg [8]: 197.8 mg/dL
Hb [8]: 15.9 g/dL
Ht [8]: 45.7%
Lym [8]: 83%
MCH [8]: 19.5 pg
MCV [8]: 55.9 fL
Mono [8]: 2.2%
Neu [8]: 12.6%
PT [8]: 12.3 s
Plat [8]: 108.1 x10_4/uL
RBC [8]: 820.4 x10_4/ul
Ret [8]: 2.2%
WBC [8]: 127.9 x10_2/uL
KIDNEY_L [6]: 1.1 g
KIDNEY_R [6]: 1.1 g
KIDNEY_TOTAL [6]: 2.2 g
KIDNEY_L [7]: 1.3 g
KIDNEY_R [7]: 1.3 g
KIDNEY_TOTAL [7]: 2.6 g
KIDNEY_L [8]: 1.3 g
KIDNEY_R [8]: 1.3 g
KIDNEY_TOTAL [8]: 2.6 g
LIVER [6]: 12.5 g
LIVER [7]: 15.3 g
LIVER [8]: 14.4 g
ALP [6]: 876.6 IU/L
ALT [6]: 37 IU/L
AST [6]: 70.6 IU/L
BUN [6]: 16.2 mg/dL
CRE [6]: 0.4 mg/dL
Ca [6]: 10.4 mg/dL
Cl [6]: 100.8 meq/L
DBIL [6]: 0.088 mg/dL
GLC [6]: 233.6 mg/dL
IP [6]: 8.2 mg/dL
K [6]: 3.7 meq/L
LDH [6]: 187.4 IU/L
Na [6]: 139.4 meq/L
PL [6]: 150.8 mg/dL
RALB [6]: 3.4 g/dL
TBIL [6]: 0.1 mg/dL
TP [6]: 5.7 g/dL
gamma-GTP [6]: 1 IU/L
ALP [7]: 890.2 IU/L
ALT [7]: 30.8 IU/L
AST [7]: 60.8 IU/L
BUN [7]: 16.9 mg/dL
CRE [7]: 0.5 mg/dL
Ca [7]: 10.7 mg/dL
Cl [7]: 101.2 meq/L
DBIL [7]: 0.1 mg/dL
GLC [7]: 219.8 mg/dL
IP [7]: 7.1 mg/dL
K [7]: 3.8 meq/L
LDH [7]: 208.4 IU/L
Na [7]: 140.6 meq/L
PL [7]: 160.2 mg/dL
RALB [7]: 3.4 g/dL
TBIL [7]: 0.2 mg/dL
TP [7]: 5.9 g/dL
gamma-GTP [7]: 0.8 IU/L
ALP [8]: 673 IU/L
ALT [8]: 36.6 IU/L
AST [8]: 68.4 IU/L
BUN [8]: 17.8 mg/dL
CRE [8]: 0.5 mg/dL
Ca [8]: 10.3 mg/dL
Cl [8]: 101.8 meq/L
DBIL [8]: 0.098 mg/dL
GLC [8]: 224.4 mg/dL
IP [8]: 6.7 mg/dL
K [8]: 3.4 meq/L
LDH [8]: 150.8 IU/L
Na [8]: 141.4 meq/L
PL [8]: 148 mg/dL
RALB [8]: 3.5 g/dL
TBIL [8]: 0.1 mg/dL
TP [8]: 6.2 g/dL
gamma-GTP [8]: 1 IU/L
TERMINAL_BW [9]: 234.6 g
APTT [9]: 20.1 s
Bas [9]: 0%
